Earlier results as cited in US20160354348A1, “METHODS FOR PROPHYLATIC APPETITE SUPPRESSION” (Orexigen Therapeutics, Inc., priority 2005, published 2016).
Read-outs that look alike come from different tables or passages of the source.

Legend:
[1] = 20-25° C.
[2] = Colosimo & De Michele 1999

## NS(=O)(=O)Cc1noc2ccccc12 [zonisamide, 1,2-benzisoxazole-3-methanesulfonamide]
[1]
  Solubility in aqueous acid: about 200 mg/ml
erythrocytes
  t1/2 in erythrocytes: about 105 hours
In vivo
  Protein bound: 40%
other
  Half-life (t1/2) in plasma: about 63 hours
Listed as Zonisamide
  Half-life (t1/2) in plasma: 63 to 69 h

## N[C@@H](Cc1ccc(O)c(O)c1)C(=O)O [levodopa]
[2]
  Elimination half-life (T1/2): about 1.5 hours
